Measurements: US6432403B1, “Antibodies to polypeptides having prenylcysteine carboxyl methlytransferase activity or inhibiting activity” (New York University, priority 1997, dated 2002)

Assays:
[1] = Prenylcysteine carboxyl methyltransferase activity of membranes, AFC as substrate; type: biochemical, human; details: for Relative enzymatic activity: COS cell membranes, Vector Alone = 1; for Increase: relative to COS + Vector
Text: Expression of Recombinant pcCMT: The 3.6-kb full-length HL60 pcCMT cDNA and an 852-bp cDNA fragment comprising the ORF were subcloned into the eukaryotic expression vectors pCDM8 and pcDNA3.1 (Invitrogen, Carlsbad, Calif.). Myc-tagged pcCMT was made by adding a sequence encoding the 10-amino acid epitope of c-Myc recognized by monoclonal antibody 9E10 to the C terminus of pcCMT using patch PCR and subcloning into pcDNA3.1. pcCMT tagged at the C terminus with GFP was generated by subcloning the pcCMT ORF into the expression vector pGFP-N3 (Clontech). For pcCMT enzymatic assays, COS-1 cells were grown in 10-cm dishes and transfected with pcCMT with DEAE-dextran as described (Aruffo et al, 1987). For fluorescence microscopy, exponentially growing COS-1, CHO, and NIH3T3 cells were plated the day prior to transfection at 50-60% confluence and transfected with 2 μg of DNA using LipofectAMINE (Life Technologies, Inc.), Gaithersburg, Md.) according to the manufacturer's instructions.
(§1) Prenylcysteine Carboxyl Methyltransferase Assays: COS-1 cells transfected with HL60 pcCMT or vector alone were harvested at 48 hours with 5 mM EDTA and subjected, in parallel with human neutrophils, to nitrogen cavitation and discontinuous sucrose density centrifugation as described (Philips et al, 1991). Light membranes were assayed for pcCMT activity qualitatively by S-adenosyl-L- [methyl-^3H]methionine labeling (SDS-polyacrylamide gel electrophoresis and flurography) of Rho GTPases partially purified from neutrophil cytosol and quantitatively by carboxyl methylation of N-acetyl-S-trans,trans-farnesyl-L-cysteine (AFC) (heptane partition, alkaline hydrolysis, and measurement of vapor phase [^3H]methanol) as described (Philips et al, 1995)
(§2) To determine whether the HL60 STE14 protein homolog has prenylcysteine carboxyl methyltransferase activity, the cDNA was subcloned into a mammalian expression vector PCDM8 (Invitrogen, San Diego, Calif.) and transiently overexpressed ectopically in COS-1 cells. Membranes prepared from these cells were used as a source of recombinant enzyme. Farnesylated Ras GTPases require detergent for extraction from membranes. Therefore, geranylgeranylated neutrophil cytosolic Rho accessory protein, guanine nucleotide dissociation inhibitor (GDI), were utilized as endogenous substrates in an in vitro assay (FIGS. 5A and 5B). Untransfected COS-1 cell membranes had little pcCMT activity toward Rho proteins compared with that of membranes derived from human neutrophils (FIG. 5A). Transfection with the HL60 cDNA conferred pcCMT activity toward Rho GTPases on COS-1 membranes, and this activity was blocked by the competitive pcCMT inhibitor, AFC, with an ED50 (10 μM) identical to that for endogenous neutrophil pcCMT. Carboxyl methylation of Rac2 and RhoA by HL60 pcCMT-transfected COS-1 cell membranes was enhanced by guanosine 5′-3-O-(thio)triphosphate (GTPγS) (FIG. 5B), similar to the activity observed in neutrophil membranes (Philips et al, 1993). Carboxyl methyltransferase activity was quantitated in membranes of COS-1 cells transfected with HL60 pcCMT using prenylcysteine analogs as defined substrates (Philips et al, 1995). Untransfected COS-1 cell membranes had […] (n=5) of the pcCMT specific activity of neutrophil membranes toward AFC.

human pcCMT [2] = biological target: T1, human pcCMT (Homo sapiens, UniProt O60725); assay: Carboxyl methylation of prenylcysteine analogs (AFC, AGGC) as defined substrates by the recombinant enzyme in COS-1 membranes; type: biochemical
T1 construct: The 3.6-kb full-length HL60 pcCMT cDNA and an 852-bp cDNA fragment comprising the ORF were subcloned into the eukaryotic expression vectors; expressed in transfected cells; host or cells: COS-1 cells (pCDM8 vector, DEAE-dextran transfection); light membranes after nitrogen cavitation
Protocol: as §1, §2
The Michaelis constants of the recombinant enzyme, Km=7 μM for AFC and 0.6 μM for AGGC, were similar to those for the endogenous neutrophil enzyme (Pillinger et al, 1994). Thus, the cDNA described above encodes authentic human myeloid pcCMT.

human pcCMT [3] = biological target: T1, human pcCMT; assay: Carboxyl methylation of Rho GTPases by COS-1 cell membranes expressing human pcCMT (S-adenosyl-L-[methyl-3H]methionine labeling, SDS-PAGE, fluorography); type: biochemical; details: HL60 pcCMT-transfected COS-1 cell membranes; 10 μM
Protocol: FIGS. 5A and 5B show the carboxyl methylation of ras-related GTPases by COS-1 cell membranes expressing ectopic human pcCMT. In FIG. 5A, neutrophil cytosol (CS) containing a mixture of Rho family proteins complexed with Rho-GDI (lanes 2, 3, 6, 7, 10, 11) or RhoA-GDI complexes partially purified from CS (lanes 4, 8, 12) were incubated with the methyl donor S-adenosyl-L-[methyl-^3H]methionine and light membranes derived from nitrogen cavitation of human neutrophils (lanes 1-4) or COS-1 cells transiently transfected with either human pcCMT (lanes 5-8) or vector alone (lanes 9-12). In some reactions (lanes 3, 7, 11) a competitive pcCMT inhibitor, AFC, was included. Reaction products were analyzed by SDS-PAGE and fluorography. The position of carboxyl methylated […] is indicated as is the position of protein phosphatase 2a (PP2a) that is methylated on a C-terminal leucine by an enzyme unrelated to pcCMT (Lee et al, 1993). […] Carboxyl methyltransferase activity was quantitated in membranes of COS-1 cells transfected with HL60 pcCMT using prenylcysteine analogs as defined substrates (Philips et al, 1995). […]

Δste14 yeast strain = assay: ste14 complementation, patch mating test; type: cell-based, S. cerevisiae; details: cDNA expressed from a plasmid
Protocol: S. cerevisiae Strains, Growth, and ste14 Complementation: Complete (YEPD), synthetic (SD), and synthetic dropout media were prepared as described previously (Michaelis et al, 1988), except that dropout medium lacked cysteine. All experiments were performed at 30° C. Yeast transformations were carried out by either the lithium acetate method (Ito et al, 1983) or the Elble method (Elble, 1992). The ste14 deletion strains used are SM1188 (MATαΔste14-3:: TRP1 trp1 leu2 ura3 his4 can1) and SM1639 (MATαΔste14-4:: URA3 trp1 leu2 his4 can1) (Sapperstein et al, 1994). Plasmid expression of STE14 protein was accomplished by pSM1237 (CEN URA3 STE14). Human pcCMT was expressed in yeast by subcloning the HL60 pcCMT ORF into the BamHI SalI sites of the yeast expression plasmid pG1 (2μ TRP1) that utilizes a GPD promoter and a PGK transcription terminator and polyadenylation signal (Schena et al, 1991). The resulting construct was designated pG1-hCMT (2μ TRP1 hCMT). Patch mating tests were carried out essentially as described previously (Michaelis et al, 1988). briefly, patches of MATα cells grown on selective media were replica plated onto a lawn of the […], SM1068 (lys1), that had been spread on an SD plate. […]
To determine whether human pcCMT could substitute in vivo for the S. cerevisiae pcCMT, STE14 protein, a complementation analysis was done using mating as a biological readout. […]

T1 sequence (O60725 whole entry, the tested form may be a part): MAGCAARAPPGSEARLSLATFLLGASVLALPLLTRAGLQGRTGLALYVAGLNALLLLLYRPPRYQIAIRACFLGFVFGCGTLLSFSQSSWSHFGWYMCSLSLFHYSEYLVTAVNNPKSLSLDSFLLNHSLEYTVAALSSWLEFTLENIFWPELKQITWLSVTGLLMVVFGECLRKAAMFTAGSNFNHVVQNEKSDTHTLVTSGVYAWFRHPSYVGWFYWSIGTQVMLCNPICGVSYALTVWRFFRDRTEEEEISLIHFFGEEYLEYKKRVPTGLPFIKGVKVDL

In the case of “PcCMT-Myc: pcCMT with the 10-amino acid c-Myc epitope added at the C terminus”, the Relative enzymatic activity ([1]; Experiment #1) is reported as 11.1.

Compound “pcCMT-FLAG: pcCMT with the 8-amino acid FLAG epitope as C-terminal extension” has a Relative enzymatic activity ([1]; Experiment #2) of 5.45 and a Relative enzymatic activity ([1]; Experiment #3) of 18.5.

With `CC(=O)N[C@@H](CSC/C=C(\C)CC/C=C(\C)CC/C=C(\C)CCC=C(C)C)C(=O)O` (stereo in doubt) [AGGC, N-acetyl-S-all-trans-geranylgeranyl-L-cysteine] the “Increase in carboxyl methylation of the substrate on pcCMT transfection” value (human pcCMT [2]; n=2) was 18 fold and the Km (human pcCMT [2]; recombinant enzyme, read-out: Michaelis constant Km) was 0.6 µM.

With `Nc1nc2c(ncn2[C@@H]2O[C@H](COP(=O)(O)OP(=O)(O)OP(O)(O)=S)[C@@H](O)[C@H]2O)c(=O)[nH]1` [GTPγS, guanosine 5′-3-O-(thio)triphosphate] the “Effect on carboxyl methylation of Rac2 and RhoA” value (human pcCMT [3]) was “enhanced”.

For “COS + pcCMT ORF: membranes of COS cells transfected with pCDM8 + pcCMT ORF only”, the Activity ([1]; Experiment 2) was 84.6 pmol/mg/min, the Increase ([1]; Experiment 2) was 45 fold and the Activity ([1]; Experiment 3) was 90.7 pmol/mg/min. For the same compound, the Increase ([1]; Experiment 3) was 53 fold.

“COS + pcCMT cDNA: membranes of COS cells transfected with pCDM8 + pcCMT full-length cDNA” gave an Activity ([1]; Experiment 1) of 62.7 pmol/mg/min, an Increase ([1]; Experiment 1) of 12 fold and an Activity ([1]; Experiment 2) of 17.7 pmol/mg/min. The Increase ([1]; Experiment 2) was 9 fold, the Activity ([1]; Experiment 3) was 35.3 pmol/mg/min and the Increase ([1]; Experiment 3) was 21 fold.

Compound “HL60 pcCMT: human prenylcysteine carboxyl methyltransferase, 284 amino acid protein of SEQ ID NO:5, ectopically expressed in COS-1 cell membranes” has a Relative enzymatic activity ([1]; Experiment #1) of 14.1, a Relative enzymatic activity ([1]; Experiment #2) of 5.4 and a Relative enzymatic activity ([1]; Experiment #3) of 19.6. The “Specific AFC carboxyl methyltransferase activity” value ([1]; transfected COS-1 membranes, n=5, p<0.0005) was 74.5 ± 6.8 pmol/mg/min, the “Increase in specific AFC carboxyl methyltransferase activity” value ([1]; transfection of COS-1 cells) was 18-53 fold and the “Restoration of mating phenotype” value (Δste14 yeast strain) was “partially restored the mating phenotype”.
